Structures are written as SMILES. pEC50, pIC50: −log10 of the molar value. Counter-ions that a name gives are not always drawn. Like-named read-outs stand apart in the source and are kept apart here.

One data set concerns MV-4-11 AML cells. The data set is described as follows: MV-4-11 cell proliferation assay (CellTiter-Glo, 6 days). To be noted: Homo sapiens, MV4-11, 144 h; 6 days treatment; binning as pXC50; read-out: MV4-11 Anti-proliferative activity (EC50 category). It counts as cell-based. As for the experimental part:
MV-4-11 Anti-Proliferative Activity (pEC50 Category)
Cell proliferation assay. Optimal cell seeding density was determined empirically for MV-4-11 AML cells by examining the growth of a wide range of seeding densities in a 384-well format to identify conditions that permitted maximal and continued proliferation for 6 days. MV-4-11 cells were plated in duplicate plates 24 hours before treatment with a 20-point two-fold dilution series of compound or 0.15% DMSO. Plates were incubated for 6 days at 37° C. in 5% CO2. Cells were then lysed with CellTiter-Glo (CTG) (Promega) and chemiluminescent signal was detected with an appropriate microplate reader. In addition, an untreated plate of cells was harvested at the time of compound addition (T0) to quantify the initial cell density. CTG values obtained after 6 days of treatment were expressed as a percent of the T0 value and plotted against compound concentration. Data were fit with a four parameter equation to generate a concentration response curve from which growth IC50 values were calculated.

A further data set deals with human full length DNMT1 (Homo sapiens (Human), UniProt P26358). The data set is described as follows: DNMT1 breaklight assay. It counts as biochemical. To be noted: repeated experimental runs, read-out: average IC50 against DNMT1. How it is done: DNMT1 breaklight in vitro assays were conducted in a total volume of 50 μl in a standard 384 well format, using black non-binding surface microplates (Corning 3575). Five μl of human full length DNMT1 (produced internally), used at a final concentration of 40 nM, was added to 5 μl of substrate mixture containing final concentrations of 125 nM hemi methylated oligonucleotide (synthesized at ATD Bio; 5′-FAM-[…]5[…]5G5TAGAT-3′ where 5=methyl deoxycitidine) and 2 μM ultrapure SAM (Cisbio #62SAHZLD). Negative control wells used 5 μl of DNMT1 and 5 μl of oligonucleotide but 0 μM SAM. All reagents were made up in 1× assay buffer (20 mM Tris pH 6.8, 25 mM NaCl, 0.5 mM MgCl2, 0.01% Triton X100 and 1 mM DTT). The reaction was incubated at 26° C. for 45 min and then stopped with the addition of 40 μl detection reagent. Detection reagent, made up in 1× Gla assay buffer (20 mM Tris pH 8.0, 80 mM NaCl, 0.75 mM MgCl2, 0.01% Triton X100 and 1 mM DTT) has a final concentration of 100 μM SAH (Sigma #A9384) and 0.0008 units/μl Gla1 restriction endonuclease (Sibenzyme #E494). Following addition of the detection reagent the plate was incubated in the dark at room temperature for 5 hr. Fluorescence intensity was then measured on the PHERAstar FS (BMG Labtech) at Ex 485 nm and Em 520 nm, with a gain of 400 and an integration time of 100 ms.

The target in another data set is human DNMT3a/3l (Homo sapiens (Human), UniProt Q9Y6K1). The data set is described as follows: DNMT3a/3l breaklight assay. It counts as biochemical.
In a further data set the target is DNMT3B (Homo sapiens (Human), UniProt Q9UBC3). Briefly: DNMT3B breaklight assay. It counts as biochemical.
In data set [1] the test system is sickle cell disease (SCD) model transgenic mice. Briefly: Fetal hemoglobin in sickle cell disease transgenic mouse model, % HbF protein by HPLC. It is filed as in vivo. To be noted: oral, 10 or 50 mg/kg BID daily, measured by HPLC. The source says: FIG. 2A depicts the effect of Compound A on fetal hemoglobin in the transgenic mouse model.
For a further data set, the system named is SCD transgenic mice. The data set is described as follows: Fetal hemoglobin in SCD transgenic mouse model, F-reticulocytes and F-RBCs by flow cytometry. It is filed as in vivo. The following applies: oral, 10 or 50 mg/kg BID daily, measured by flow cytometry. From the text: FIG. 2B depicts the effect of Compound A on fetal hemoglobin in the transgenic mouse model.

Where [2] appears, read: read-out: DNMT3A Breaklight IC50.
Where [3] appears, read: repeated experimental runs, read-out: average IC50, DNMT3A breaklight assay.
Where [4] appears, read: read-out: DNMT3B Breaklight IC50.
Setting [5] is: repeated experimental runs, read-out: average IC50, DNMT3B breaklight assay.

human DNMT3a/3l, sequence (Q9Y6K1 whole entry, looked up): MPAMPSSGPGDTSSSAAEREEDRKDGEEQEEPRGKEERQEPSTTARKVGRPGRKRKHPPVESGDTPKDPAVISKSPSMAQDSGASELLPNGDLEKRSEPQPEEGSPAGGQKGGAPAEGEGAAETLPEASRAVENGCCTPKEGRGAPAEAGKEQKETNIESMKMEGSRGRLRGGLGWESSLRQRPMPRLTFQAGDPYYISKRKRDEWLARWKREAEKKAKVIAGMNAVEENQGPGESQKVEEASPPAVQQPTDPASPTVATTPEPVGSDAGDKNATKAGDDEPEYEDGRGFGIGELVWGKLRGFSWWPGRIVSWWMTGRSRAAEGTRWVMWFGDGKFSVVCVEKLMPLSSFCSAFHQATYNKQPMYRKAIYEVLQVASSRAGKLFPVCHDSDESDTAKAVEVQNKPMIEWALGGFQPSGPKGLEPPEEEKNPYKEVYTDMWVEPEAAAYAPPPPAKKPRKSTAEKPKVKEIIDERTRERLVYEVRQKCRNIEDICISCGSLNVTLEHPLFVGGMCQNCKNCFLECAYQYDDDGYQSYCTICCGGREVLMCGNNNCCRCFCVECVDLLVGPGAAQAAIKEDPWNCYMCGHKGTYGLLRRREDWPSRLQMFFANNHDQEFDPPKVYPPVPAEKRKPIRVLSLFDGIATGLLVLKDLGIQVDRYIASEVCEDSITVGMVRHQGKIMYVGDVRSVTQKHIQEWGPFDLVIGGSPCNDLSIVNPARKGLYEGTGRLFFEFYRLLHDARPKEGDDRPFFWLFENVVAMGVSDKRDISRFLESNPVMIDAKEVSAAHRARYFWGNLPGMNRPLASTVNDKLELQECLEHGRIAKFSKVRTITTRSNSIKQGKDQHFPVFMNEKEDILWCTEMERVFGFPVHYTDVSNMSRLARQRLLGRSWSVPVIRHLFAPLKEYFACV
human DNMT3a/3l, sequence (Q9UJW3 whole entry partner, looked up): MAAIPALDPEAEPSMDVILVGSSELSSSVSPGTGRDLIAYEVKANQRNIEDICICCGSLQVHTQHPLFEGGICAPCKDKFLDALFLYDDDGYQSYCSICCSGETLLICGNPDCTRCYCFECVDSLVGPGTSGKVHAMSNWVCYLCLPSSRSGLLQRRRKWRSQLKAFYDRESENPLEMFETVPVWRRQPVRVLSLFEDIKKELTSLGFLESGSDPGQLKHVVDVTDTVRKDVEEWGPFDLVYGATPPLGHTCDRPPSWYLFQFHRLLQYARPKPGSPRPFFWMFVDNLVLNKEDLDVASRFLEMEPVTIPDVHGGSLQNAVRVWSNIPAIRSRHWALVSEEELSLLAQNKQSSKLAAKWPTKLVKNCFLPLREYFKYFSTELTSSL
human full length DNMT1, sequence (P26358 whole entry): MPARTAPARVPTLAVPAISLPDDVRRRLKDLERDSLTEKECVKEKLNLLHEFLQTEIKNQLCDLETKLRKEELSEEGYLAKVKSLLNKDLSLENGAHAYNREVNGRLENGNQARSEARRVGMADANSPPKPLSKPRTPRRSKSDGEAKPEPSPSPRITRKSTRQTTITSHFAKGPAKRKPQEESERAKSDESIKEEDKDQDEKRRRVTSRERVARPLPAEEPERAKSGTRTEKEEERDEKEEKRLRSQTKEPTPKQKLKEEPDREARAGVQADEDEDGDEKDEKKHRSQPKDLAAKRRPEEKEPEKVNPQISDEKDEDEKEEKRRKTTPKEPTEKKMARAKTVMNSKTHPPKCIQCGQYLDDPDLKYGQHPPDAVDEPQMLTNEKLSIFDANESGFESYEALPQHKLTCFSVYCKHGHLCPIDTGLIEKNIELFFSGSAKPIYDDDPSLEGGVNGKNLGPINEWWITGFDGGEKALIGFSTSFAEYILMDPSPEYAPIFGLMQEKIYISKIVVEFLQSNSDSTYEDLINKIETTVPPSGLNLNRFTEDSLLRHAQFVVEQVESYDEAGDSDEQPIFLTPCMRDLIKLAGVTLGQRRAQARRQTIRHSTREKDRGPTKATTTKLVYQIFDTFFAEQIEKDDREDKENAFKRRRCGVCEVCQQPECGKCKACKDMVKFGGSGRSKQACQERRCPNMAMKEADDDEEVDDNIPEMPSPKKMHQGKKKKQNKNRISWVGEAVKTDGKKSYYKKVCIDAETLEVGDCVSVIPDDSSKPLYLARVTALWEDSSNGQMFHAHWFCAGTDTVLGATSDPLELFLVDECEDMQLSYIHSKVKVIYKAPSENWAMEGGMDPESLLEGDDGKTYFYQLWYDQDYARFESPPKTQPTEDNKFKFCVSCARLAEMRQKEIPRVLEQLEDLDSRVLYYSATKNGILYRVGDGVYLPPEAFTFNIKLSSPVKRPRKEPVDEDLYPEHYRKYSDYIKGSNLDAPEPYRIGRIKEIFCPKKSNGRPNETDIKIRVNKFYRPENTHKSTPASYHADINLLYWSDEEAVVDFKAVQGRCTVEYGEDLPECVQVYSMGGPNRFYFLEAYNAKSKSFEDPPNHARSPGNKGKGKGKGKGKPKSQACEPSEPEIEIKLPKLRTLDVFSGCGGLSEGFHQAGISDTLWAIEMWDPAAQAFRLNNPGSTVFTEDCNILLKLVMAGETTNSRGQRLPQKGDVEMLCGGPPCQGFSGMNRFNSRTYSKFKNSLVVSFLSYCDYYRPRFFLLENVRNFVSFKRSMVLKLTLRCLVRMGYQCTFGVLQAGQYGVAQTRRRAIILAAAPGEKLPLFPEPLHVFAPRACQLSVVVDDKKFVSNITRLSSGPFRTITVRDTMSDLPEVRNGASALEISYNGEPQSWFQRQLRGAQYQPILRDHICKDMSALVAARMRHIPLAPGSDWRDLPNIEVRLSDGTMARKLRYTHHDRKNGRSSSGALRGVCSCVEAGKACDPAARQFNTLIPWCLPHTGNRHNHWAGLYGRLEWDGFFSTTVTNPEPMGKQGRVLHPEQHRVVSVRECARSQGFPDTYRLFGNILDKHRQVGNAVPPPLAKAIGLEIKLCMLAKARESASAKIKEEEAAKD

As for `N#Cc1c(SC(C(N)=O)c2ccccc2)nc(N2CCOC(CO)C2)c(C#N)c1C1CC1` (stereo not drawn) [Example 63, 2-((3,5-Dicyano-4-cyclopropyl-6-(2-(hydroxymethyl)morpholino)pyridin-2-yl)thio)-2-phenylacetamide], in the data set with MV-4-11 AML cells, the pEC50 was 4.50 to 6.00. Also, the pIC50 at human full length DNMT1 was below 6.12.

Consider `CCc1c(C#N)c(N[C@@H](C(N)=O)c2ccccc2)nc(N2CCCNCC2)c1C#N` [Example 41, (R)-2-((3,5-dicyano-6-(1,4-diazepan-1-yl)-4-ethylpyridin-2-yl)amino)-2-phenylacetamide], for which the pIC50 at human DNMT3a/3l (setting [2]) is below 3.30; on human DNMT3a/3l (setting [3]) it was below 3.30; on DNMT3B (setting [4]), below 3.30; on DNMT3B (setting [5]), below 3.30; on human full length DNMT1 it was below 6.12.

`CCc1c(C#N)c(SC(C(N)=O)c2ccccc2)nc(N(C)C)c1C#N` (stereo not drawn) [Compound A, 2-{[3,5-dicyano-6-(dimethylamino)-4-ethylpyridin-2-yl]sulfanyl}-2-phenylacetamide]: the “% HbF protein” value in data set [1] is “dose dependent increases”. Also, in the data set on SCD transgenic mice, the “% F-RBCs” value is listed as “dose dependent increases” and the “% F-reticulocytes” value is recorded as “dose dependent increases”.

As to `CCc1c(C#N)c(SC(C(N)=O)c2ccccc2)nc(N2CCC23CCNCC3)c1C#N` (stereo not drawn) [Example 38, 2-((3,5-Dicyano-4-ethyl-6-(1,7-diazaspiro[3.5]nonan-1-yl)pyridin-2-yl)thio)-2-phenylacetamide trifluoroacetate], in the data set on MV-4-11 AML cells, the pEC50 is 4.50 to 6.00. Besides, on human full length DNMT1, the pIC50 was below 6.12.

As to `CCc1c(C#N)c(SC(C(N)=O)c2ccccc2)nc(N2CCC(O)CC2)c1C#N` (stereo not drawn) [Example 48, 2-((3,5-Dicyano-4-ethyl-6-(4-hydroxypiperidin-1-yl)pyridin-2-yl)thio)-2-phenylacetamide], the pIC50 at human DNMT3a/3l (setting [2]) was below 3.30; at DNMT3B (setting [4]), below 3.30; on human full length DNMT1, 6.05.

In the case of `N#Cc1c(SC(C(N)=O)c2ccncc2)nc(N2CCOCC2)c(C#N)c1C1CC1` (stereo not drawn) [Example 9, 2-((3,5-dicyano-4-cyclopropyl-6-morpholinopyridin-2-yl)thio)-2-(pyridin-4-yl)acetamide], the pIC50 is below 3.30 on human DNMT3a/3l (setting [2]); below 3.30 on human DNMT3a/3l (setting [3]); below 3.30 at DNMT3B (setting [4]); below 3.30 at DNMT3B (setting [5]); below 6.12 on human full length DNMT1.

In the case of `CN1CCN(C2CCN(c3nc(SC(C(N)=O)c4ccccc4)c(C#N)c(C4CC4)c3C#N)CC2)CC1` (stereo not drawn) [Example 40, 2-((3,5-Dicyano-4-cyclopropyl-6-(4-(4-methylpiperazin-1-yl)piperidin-1-yl)pyridin-2-yl)thio)-2-phenylacetamide], the negative-log EC50 (pEC50) in the data set with MV-4-11 AML cells is 6.00 to 6.50. The pIC50 at human full length DNMT1 is at least 6.30.

As for `CC(Sc1nc(N2CCCNCC2)c(C#N)c(C2CC2)c1C#N)C(N)=O` (stereo not drawn) [Example 46, 2-((3,5-dicyano-4-cyclopropyl-6-(1,4-diazepan-1-yl)pyridin-2-yl)thio)propanamide], the pIC50 at human DNMT3a/3l (setting [2]) and at DNMT3B (setting [4]) was below 3.30 each time. For the same compound, the pEC50 in the data set on MV-4-11 AML cells was 4.50 to 6.00.

`CCc1c(C#N)c(SC(C(N)=O)c2ccccc2)nc(N2CCN(CC)CC2)c1C#N` (stereo not drawn) [Example 35, 2-((3,5-dicyano-4-ethyl-6-(4-ethylpiperazin-1-yl)pyridin-2-yl)thio)-2-phenylacetamide]: the pIC50 at human DNMT3a/3l (setting [2]) is below 3.30; at human DNMT3a/3l (setting [3]), below 3.30; at DNMT3B (setting [4]) it was below 3.30; at DNMT3B (setting [5]), below 3.30; at human full length DNMT1, below 6.12.

On to `CCc1c(C#N)c(SC(C(N)=O)c2ccccc2)nc(N2CCNC(=O)CC2)c1C#N` (stereo not drawn) [Example 8, 2-{[3,5-dicyano-4-ethyl-6-(5-oxo-1,4-diazepan-1-yl)pyridin-2-yl]sulfanyl}-2-phenylacetamide], for which the pIC50 on human DNMT3a/3l (setting [2]) is below 3.30; on human DNMT3a/3l (setting [3]), below 3.30; on DNMT3B (setting [4]), below 3.30; at DNMT3B (setting [5]), below 3.30; at human full length DNMT1 it was below 6.12. Further, the pEC50 with MV-4-11 AML cells is 4.50 to 6.00.

With `CCc1c(C#N)c(SC(C(N)=O)c2ccccc2)nc(N2CCNCC2)c1C#N` (stereo not drawn) [Example 55, 2-((3,5-Dicyano-4-ethyl-6-(piperazin-1-yl)pyridin-2-yl)thio)-2-phenylacetamide], the negative-log IC50 (pIC50) at human DNMT3a/3l (setting [2]) was below 3.30; at DNMT3B (setting [4]), 3.57. Moreover, the pEC50 in the data set with MV-4-11 AML cells was 4.50 to 6.00.

`CCc1c(C#N)c(SC(C(N)=O)c2ccccc2)nc(N2CCOCC2)c1C#N` (stereo not drawn) [Example 57, 2-((3,5-Dicyano-4-ethyl-6-morpholinopyridin-2-yl)thio)-2-phenylacetamide]: the pIC50 at human DNMT3a/3l (setting [2]) and on DNMT3B (setting [4]) was below 3.30 throughout. In addition, in the data set on MV-4-11 AML cells, the pEC50 is 6.00 to 6.50.

In the case of `CN1CCN(CC2CCN(c3nc(SC(C(N)=O)c4ccccc4)c(C#N)c(C4CC4)c3C#N)CC2)CC1` (stereo not drawn) [Example 125, 2-((3,5-Dicyano-4-cyclopropyl-6-(4-((4-methylpiperazin-1-yl)methyl)piperidin-1-yl)pyridin-2-yl)thio-2-phenylacetamide trifluoroacetate], the negative logarithm of the IC50 (pIC50) on human DNMT3a/3l (setting [2]) is 3.49; at DNMT3B (setting [4]) it was 4.12. In addition, the pEC50 in the data set with MV-4-11 AML cells is 6.00 to 6.50.

Turning to `CCc1c(C#N)c(SC(C(N)=O)c2ccccc2)nc(N2CCCN(C)CC2)c1C#N` (stereo not drawn) [Example 56, 2-((3,5-Dicyano-4-ethyl-6-(4-methyl-1,4-diazepan-1-yl)pyridin-2-yl)thio)-2-phenylacetamide], the pIC50 was below 3.30 on human DNMT3a/3l (setting [2]); below 3.30 on human DNMT3a/3l (setting [3]); below 3.30 at DNMT3B (setting [4]); below 3.30 at DNMT3B (setting [5]); at least 6.30 on human full length DNMT1. In the data set on MV-4-11 AML cells, the pEC50 is 4.50 to 6.00.

Values taken from patent US10975056B2 (GlaxoSmithKline Intellectual Property Development Limited, priority 2016, dated 2021).
